17 compounds from ChEMBL document CHEMBL1130006, “Antimalarial activity of new dihydroartemisinin derivatives. 7. 4-(p-substituted phenyl)-4(R or S)-[10(alpha or beta)-dihydroartemisininoxy]butyric acids” (J Med Chem, 1997) can be followed below.

For assay [1], the system named is Plasmodium falciparum. Description: In vitro inhibitory concentration against Plasmodium falciparum W2 Indochina. The assay is classed as functional, organism-based.
The test system of assay [2] is Plasmodium falciparum. Description: In vitro inhibitory concentration against Plasmodium falciparum D6 (Sierra Leone). The assay is classed as functional, organism-based.
For assay [3], the species on record is Mus musculus. Description: Dose that causes 90% suppression of Plasmodium berghei parasitaemia in the treated mice (Mus musculus) compared to untreated controls. The format is functional.
Assay [4] relates to Mus musculus. Description: T/C is life span of treated mice/control at a compound dose of 64 (mg/kg). The assay is classed as functional.
For assay [5], the species on record is Mus musculus. In words: Dose that causes 50% suppression of Plasmodium berghei parasitaemia in the treated mice (Mus musculus) compared to untreated controls. The format is functional.
The subject of assay [6] is Mus musculus. In words: T/C is life span of treated mice/control at a compound dose of 4 (mg/kg). The format is functional.
For assay [7], the system named is Mus musculus. Description: T/C is life span of treated mice/control at a compound dose of 16 (mg/kg). The assay is classed as functional.
The test system of assay [8] is Mus musculus. In words: T/C is life span of treated mice/control at a compound dose of 16,(mg/kg). The assay is classed as functional.

In brackets after ≈: the same amount, converted by molar mass.

For the compound `COC(=O)CC[C@@H](O[C@H]1O[C@@H]2O[C@@]3(C)CC[C@H]4[C@H](C)CCC([C@H]1C)[C@@]24OO3)c1ccc(Cl)cc1` (stereo not given in full), the values for the concentration for half-maximal inhibition (IC50) with Plasmodium falciparum [1] and in the assay on Plasmodium falciparum [2] were 0.656 ng/mL (≈ 1.33 nM) and 0.391 ng/mL (≈ 0.79 nM), respectively.

Consider `COC(=O)CC[C@@H](O[C@@H]1O[C@@H]2O[C@@]3(C)CC[C@H]4[C@H](C)CCC([C@H]1C)[C@@]24OO3)c1ccc(Cl)cc1` (stereo not given in full), for which the concentration for half-maximal inhibition (IC50) in the assay on Plasmodium falciparum [1] worked out at 0.629 ng/mL (≈ 1.27 nM); with Plasmodium falciparum [2], 0.728 ng/mL (≈ 1.47 nM).

For `C[C@@H]1CCC2[C@@H](C)[C@H](OC(CCC(=O)O)c3ccc(Br)cc3)O[C@@H]3OC4(C)CC[C@@H]1C23OO4` (stereo not given in full), the half-inhibitory concentration (IC50) with Plasmodium falciparum [1] was 0.313 ng/mL (≈ 0.596 nM); with Plasmodium falciparum [2], 0.405 ng/mL (≈ 0.771 nM). The same compound showed an SD90 in the assay filed under Mus musculus [3] of 48.18 mg/kg. Also, the results for the T/C in the assay with Mus musculus [4], with Mus musculus [6] and in the assay on Mus musculus [7] were 5.8 days, 2.7 days and 3.5 days, respectively. This compound also came in with an SD50 in the assay listed under Mus musculus [5] of 16.26 mg/kg.

As for `COC(=O)CCC(O[C@@H]1O[C@@H]2OC3(C)CC[C@H]4[C@H](C)CCC([C@H]1C)C24OO3)c1ccc(OC)cc1` (stereo not given in full), the values for the IC50 with Plasmodium falciparum [1] and with Plasmodium falciparum [2] were 0.647 ng/mL (≈ 1.32 nM) and 0.827 ng/mL (≈ 1.68 nM), respectively.

As to `C[C@H]1C(Oc2ccc(C(=O)[O-])cc2)O[C@@H]2O[C@]3(C)CC[C@H]4[C@H](C)CCC1C24OO3.[Na+]` (stereo not given in full), the T/C is 4.3 days in the assay with Mus musculus [4] and 2.7 days with Mus musculus [7]. In addition, in the assay listed under Mus musculus [5], the SD50 was 56 mg/kg.

In the case of `C[C@@H]1CCC2[C@@H](C)[C@H](OC(CCC(=O)O)c3ccc(F)cc3)O[C@@H]3OC4(C)CC[C@@H]1C23OO4` (stereo not given in full), the IC50 stood at 1.34 ng/mL (≈ 2.88 nM) with Plasmodium falciparum [1] and 2.21 ng/mL (≈ 4.76 nM) in the assay on Plasmodium falciparum [2]. Also, the SD90 in the assay listed under Mus musculus [3] came to 58.07 mg/kg. Besides, the T/C came to 3.3 days in the assay on Mus musculus [4], 1.5 days in the assay with Mus musculus [6] and 2.8 days in the assay on Mus musculus [7]. The compound also showed an SD50 in the assay listed under Mus musculus [5] of 28.16 mg/kg.

`COc1ccc(C(CCC(=O)O)O[C@@H]2O[C@@H]3OC4(C)CC[C@H]5[C@H](C)CCC([C@H]2C)C35OO4)cc1` (stereo not given in full): the results for the IC50 in the assay on Plasmodium falciparum [1] and in the assay with Plasmodium falciparum [2] were 3.45 ng/mL (≈ 7.24 nM) and 3.82 ng/mL (≈ 8.01 nM), respectively. Besides, the SD90 in the assay filed under Mus musculus [3] is 54.99 mg/kg. The T/C with Mus musculus [4] was 4 days; in the assay with Mus musculus [6], 1.7 days; in the assay with Mus musculus [7] it was 2.5 days. The SD50 in the assay listed under Mus musculus [5] came to 25.06 mg/kg.

Consider `C[C@@H]1CCC2[C@@H](C)[C@@H](OC(CCC(=O)O)c3ccc(Cl)cc3)O[C@@H]3OC4(C)CC[C@@H]1C23OO4` (stereo not given in full), for which the results for the IC50 in the assay with Plasmodium falciparum [1] and with Plasmodium falciparum [2] were 1.26 ng/mL (≈ 2.62 nM) and 2.4 ng/mL (≈ 5 nM), respectively.

As for `COC(=O)CCC(O[C@@H]1O[C@@H]2OC3(C)CC[C@H]4[C@H](C)CCC([C@H]1C)C24OO3)c1ccc(Br)cc1` (stereo not given in full), the values for the 50% inhibitory concentration (IC50) with Plasmodium falciparum [1] and with Plasmodium falciparum [2] were 0.543 ng/mL (≈ 1.01 nM) and 0.673 ng/mL (≈ 1.25 nM), respectively.

On to `C[C@@H]1CCC2[C@@H](C)[C@@H](OC(CCC(=O)O)c3ccc(Br)cc3)O[C@@H]3OC4(C)CC[C@@H]1C23OO4` (stereo not given in full), for which the IC50 was determined as 0.419 ng/mL (≈ 0.797 nM) with Plasmodium falciparum [1] and 1.36 ng/mL (≈ 2.59 nM) in the assay on Plasmodium falciparum [2].

Consider `COC(=O)CCC(O[C@@H]1O[C@@H]2OC3(C)CC[C@H]4[C@H](C)CCC([C@H]1C)C24OO3)c1ccc(F)cc1` (stereo not given in full), for which the half-maximal inhibitory concentration (IC50) in the assay with Plasmodium falciparum [1] stood at 0.398 ng/mL (≈ 0.832 nM); in the assay on Plasmodium falciparum [2], 0.43 ng/mL (≈ 0.9 nM).

On to `C[C@@H]1CCC2[C@@H](C)[C@H](OC(CCC(=O)O)c3ccc(Cl)cc3)O[C@@H]3OC4(C)CC[C@@H]1C23OO4` (stereo not given in full), for which the IC50 in the assay with Plasmodium falciparum [1] was 0.357 ng/mL (≈ 0.742 nM); in the assay on Plasmodium falciparum [2], 0.38 ng/mL (≈ 0.79 nM). For the same compound, the results for the T/C in the assay on Mus musculus [8], in the assay on Mus musculus [4] and with Mus musculus [6] were 3.8 days, 4.8 days and 2.3 days, respectively. This compound also registered an SD90 in the assay filed under Mus musculus [3] of 45.04 mg/kg. In the assay listed under Mus musculus [5], this compound came in with an SD50 of 14.39 mg/kg.

For `COC(=O)CCC(O[C@H]1O[C@@H]2OC3(C)CC[C@H]4[C@H](C)CCC([C@H]1C)C24OO3)c1ccc(Cl)cc1` (stereo not given in full), the IC50 with Plasmodium falciparum [1] came out at 0.794 ng/mL (≈ 1.6 nM); with Plasmodium falciparum [2] it was 0.903 ng/mL (≈ 1.82 nM).

Turning to `COC(=O)CCC(O[C@H]1O[C@@H]2OC3(C)CC[C@H]4[C@H](C)CCC([C@H]1C)C24OO3)c1ccc(Br)cc1` (stereo not given in full), the IC50 in the assay on Plasmodium falciparum [1] is 0.62 ng/mL (≈ 1.15 nM); in the assay with Plasmodium falciparum [2], 1.01 ng/mL (≈ 1.87 nM).

With `COC(=O)CCC(O[C@H]1O[C@@H]2OC3(C)CC[C@H]4[C@H](C)CCC([C@H]1C)C24OO3)c1ccc(F)cc1` (stereo not given in full), the half-maximal inhibitory concentration (IC50) in the assay with Plasmodium falciparum [1] was found to be 0.488 ng/mL (≈ 1.02 nM); with Plasmodium falciparum [2], 0.616 ng/mL (≈ 1.29 nM).

As to `C[C@@H]1CCC2[C@@H](C)[C@@H](OC(CCC(=O)O)c3ccc(F)cc3)O[C@@H]3OC4(C)CC[C@@H]1C23OO4` (stereo not given in full), the half-inhibitory concentration (IC50) stood at 0.828 ng/mL (≈ 1.78 nM) with Plasmodium falciparum [1] and 2.33 ng/mL (≈ 5.02 nM) in the assay with Plasmodium falciparum [2].

In the case of `C[C@@H]1CC[C@H]2[C@@H](C)C(=O)O[C@@H]3O[C@@]4(C)CC[C@@H]1[C@]32OO4` [ARTEMISININ], the 50% inhibitory concentration (IC50) with Plasmodium falciparum [1] worked out at 2.14 ng/mL (≈ 7.57 nM); in the assay on Plasmodium falciparum [2], 3.91 ng/mL (≈ 13.9 nM).
